According to patent publication US20210134398A1, “Combinatorial Chemistry Computational System and Enhanced Selection Method” (Southern Methodist University, priority 2019, published 2021):
Read-outs that look alike come from different tables or passages of the source.

How the values were obtained:
DU145TXR = experiment: Cell viability, toxicity of the compounds themselves; format: cell-based; details: absence of chemotherapeutic or very low paclitaxel
Method: It should be noted that compounds 541 and 551 were not assessed in these latter experiments.
MTT cell viability assay. Cells were trypsinized from monolayers and seeded with 3000 cells in 150 μL of complete medium in a 96 well plate. After 24 hours, cells were treated for 48 hours with paclitaxel (Acros Organics, NJ) and/or P-gp inhibitory compounds dissolved in DMSO, or DMSO controls. All additions were diluted into complete medium. After 48 hours of treatment, MTT assays were performed as described^41 using 5 mg/mL of MTT (Acros Organics, NJ) solution prepared in PBS (137 mM NaCl, 2.7 mM KCl, 10 mM Na2HPO4, 1.8 mM KH2PO4, pH 7.4). After 4 hours of incubation with MTT, the media was removed and the formazan crystals were dissolved in 100 μL of DMSO. The absorbance at 570 nm was then measured using a BioTek Cytation 5 imaging multi-mode reader (Bio-Tek, Winooski, Vt.). Percent viability was calculated using DMSO treated cells as representative for 100% viability, according to Equation 1. Background absorbance was determined using MTT and complete medium without cells and subtracted from all the test values. Equation 1: […]

[1] = target: T1, cysteineless mouse P-glycoprotein (Mus musculus, UniProt P21447, C1070A/C1121A/C1223A/C133A/C427A/C638A/C669A/C713A/C952A); details: in the presence of 29, from Brewer et al. (2014), cited from earlier work
T1 construct: made in house; host or cells: Pichia pastoris
T1 sequence (P21447 whole entry C133A/C427A/C638A/C669A/C713A/C952A/C1070A/C1121A/C1223A): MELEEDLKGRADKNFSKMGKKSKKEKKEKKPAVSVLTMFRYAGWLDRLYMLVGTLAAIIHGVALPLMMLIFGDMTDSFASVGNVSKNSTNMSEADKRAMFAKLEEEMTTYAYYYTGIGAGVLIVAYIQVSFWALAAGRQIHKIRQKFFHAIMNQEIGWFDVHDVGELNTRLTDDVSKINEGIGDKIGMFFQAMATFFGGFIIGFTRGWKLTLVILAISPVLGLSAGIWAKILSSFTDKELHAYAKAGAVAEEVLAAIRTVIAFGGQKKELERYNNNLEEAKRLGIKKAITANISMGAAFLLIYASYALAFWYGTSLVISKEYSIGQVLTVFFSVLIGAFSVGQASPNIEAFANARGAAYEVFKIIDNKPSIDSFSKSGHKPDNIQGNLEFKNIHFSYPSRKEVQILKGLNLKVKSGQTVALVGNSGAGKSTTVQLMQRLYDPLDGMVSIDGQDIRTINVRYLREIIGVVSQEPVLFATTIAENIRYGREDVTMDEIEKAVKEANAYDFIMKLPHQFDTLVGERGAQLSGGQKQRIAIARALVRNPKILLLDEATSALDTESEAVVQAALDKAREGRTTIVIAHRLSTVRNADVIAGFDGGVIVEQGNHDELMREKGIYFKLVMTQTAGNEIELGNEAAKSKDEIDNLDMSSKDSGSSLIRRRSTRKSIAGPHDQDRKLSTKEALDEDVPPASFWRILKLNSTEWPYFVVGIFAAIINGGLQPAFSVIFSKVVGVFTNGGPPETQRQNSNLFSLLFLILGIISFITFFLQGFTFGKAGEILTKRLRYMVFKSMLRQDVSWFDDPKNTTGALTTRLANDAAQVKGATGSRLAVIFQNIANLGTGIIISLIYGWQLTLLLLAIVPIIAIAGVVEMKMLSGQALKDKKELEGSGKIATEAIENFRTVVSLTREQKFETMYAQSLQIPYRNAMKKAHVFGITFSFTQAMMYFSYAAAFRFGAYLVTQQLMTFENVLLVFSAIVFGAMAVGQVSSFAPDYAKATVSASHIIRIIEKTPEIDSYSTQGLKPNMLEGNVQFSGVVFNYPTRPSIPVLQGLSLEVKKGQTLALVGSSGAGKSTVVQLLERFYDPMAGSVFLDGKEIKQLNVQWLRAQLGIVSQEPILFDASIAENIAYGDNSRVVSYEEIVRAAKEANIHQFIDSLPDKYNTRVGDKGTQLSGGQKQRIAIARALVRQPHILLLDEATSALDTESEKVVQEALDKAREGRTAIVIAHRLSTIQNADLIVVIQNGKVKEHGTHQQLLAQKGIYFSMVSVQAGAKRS

Structure (SMILES)	Toxicity of the compound to DU145TXR cells (DU145TXR)	Effect on SL-ANP binding [1]	Effect on SL-ANP binding ([1]; listed as SMU29)
Cc1cc(C)c(-c2cc(NC(=O)CSCC(=O)NC(c3ccccc3)c3ccccc3)n(-c3ccccc3)n2)cc1C [29-280, N-(diphenylmethyl)-2-[({[1-phenyl-3-(2,4,5-trimethylphenyl)-1H-pyrazol-5-yl]carbamoyl)methyl}sulfanyl]acetamide]	seemed to exhibit some toxicity		
Cc1cc(C)c(-c2cc(NC(=O)CSc3nnc(C4CC4)[nH]3)n(-c3ccccc3)n2)cc1C [compound 29, reference compound]		did not affect the binding	no
Cc1cc(C)c(-c2cc(NC(=O)CSc3nnc4c(n3)[nH]c3ccccc34)n(-c3ccccc3)n2)cc1C [29-541, 2-((5H-[1,2,4]triazino[5,6-b]indol-3-yl)thio)-N-(1-phenyl-3-(2,4,5-trimethylphenyl)-1H-pyrazol-5-yl)acetamide]	showed some toxicity		
